Assay [1] has as its system Anopheles gambiae. Nature of the assay: Laboratory-based repellency test, treated forearm in cage, protective efficacy (PE). To be noted: An. gambiae, landings over 3 min. Format: in vivo. The procedure: (§1) The mosquitoes were laboratory-reared using standard conditions at ICIPE, Duduville. 5-7 day old female mosquitoes that had been starved for 18 h but previously fed on 6% glucose solution were used. Eighteen cages (50×50×50 cm) were used with 25 female mosquitoes in each. Six human volunteers with no or little allergic reaction to bites were selected. Test solutions (0.5 ml in acetone) were applied to a volunteer's forearms and the hand was covered with a glove. Acetone alone (0.5 ml) served as a control on the other arm. The control arm was inserted into a cage and the number of landings were recorded over 3 min. The treated arm was then inserted as above. Repellency data was expressed as protective efficacy (PE) and was calculated by using the formula PE=(% control mean−% test mean/% control mean). The data were transformed and subjected to an ANOVA.
(§2) Each compound was tested at concentrations ranging from 0.0001% to 10%. […]

The test system of assay [2] is Culex quinquefasciatus. The assay is described as above. The assay is classed as in vivo. The settings on record: for Mean % P.E ± S.E: landings over 3 min. Here is the method:
as §1, §2

Assay [3] relates to C. impunctatus midges. The assay is described as follows: Field trial of repellency (WHO protocol), compounds on stockings worn on forearms of volunteers. Format: in vivo, Culicoides impunctatus. The settings on record: for repellency compared with DEET at 1%: over 1 min, single compounds at 1%. Here is the method:
FIG. 6. Repellency of EAG-active human-derived compounds applied to the forearms of volunteers and tested on Culicoides impuctatus midges in the field. a) over 1 minute and b) over 5 minutes.
A field trial was made in the Ormsary estate, Argyllshire, during the summer 2005 in a region with an extremely high natural population of C. impunctatus. […] Compounds were applied to (nylon) stockings and worn on the forearms of volunteers and were tested at three concentrations in ethanol (1%, 0.01% and 0.0001%). All compounds and mixtures were compared against the WHO approved repellent diethyltoluamide (DEET) (1% and 40%).

For assay [4], the system named is Aedes aegypti host-seeking female mosquitoes. The assay is described as follows: Y-tube olfactometer: response of mosquitoes to hand of attractive volunteer with and without chemical. The assay is classed as in vivo. The source says:
FIG. 5. […] (−1=1×10^−1 g μL^−1; −2=1×10^−2 g μL^−1, etc). Back transformed means+95% confidence intervals (calculated for a binomial distribution) from the logistic scale are shown.
A convenient bioassay was established following work by Geier et al. (1999)^17 using a Y-tube olfactometer in which mosquitoes, Ae. aegypti, could “choose” between volatile skin emanations and air alone, the “choice” being expressed as flight activity or relative attraction. Initially, the source of skin emanations was from individual hands of a series of human volunteers.
These compounds (from Sigma Aldrich) were tested individually at different concentrations in the olfactometer against Ae. aegypti. The upwind flight activity, relative attraction and probing activity (feeding) of the mosquitoes to the hand of an attractive volunteer with and without the chemicals was recorded.

Assay [5] has as its system Ae. aegypti. To be noted: H. D. Douglas et al. J. Med. Entomol. 42(4): 647-651 (2005); cited from earlier work.
The mark [6] stands for this setting: hand of attractive volunteer with chemical vs without, data not shown.

“And” between values parts separate entries of the source, which are not always exact repeats. Equal values may be shown once. “Also recorded” adds a separate entry of the source.

With `CC(=O)CCC=C(C)C` [6-methyl-5-hepten-2-one, 6-Methyl-5-hepten-2-one], the “Mean % P.E ± S.E” value in assay [1] (0.0001 % Conc. in acetone) was found to be 0.85 ± 3.9%; in assay [1] (0.001 % Conc. in acetone), 1.57 ± 11.2%; in assay [1] (0.01 % Conc. in acetone), 19.2 ± 5.5%; in assay [1] (0.1 % Conc. in acetone), 34.07 ± 6.6%; in assay [1] (1 % Conc. in acetone), 35.73 ± 8.7%; in assay [1] (10 % Conc. in acetone), 74.75 ± 6.1%. Further, the “Mean % P.E ± S.E” value in assay [2] (0.0001 % Conc. in acetone) is 8.0%; in assay [2] (0.001 % Conc. in acetone), 12.7%; in assay [2] (0.01 % Conc. in acetone), 21.8%; in assay [2] (0.1 % Conc. in acetone), 30.1%; in assay [2] (1 % Conc. in acetone), 49.7 ± 2.9%; in assay [2] (10 % Conc. in acetone), 100.0 ± 0%. Further, the repellency result in assay [3] (1 min time, 0.001%) is “significantly repellent”; in assay [3] (1 min time, 0.01%) it was “not repellent”; in assay [3] (1 min time, 1%), “strongly repellent”; in assay [3] (over 5 min) it was “repellent only at 1%”. Also, the “repellency compared with DEET at 1%” value in assay [3] is “more effective than DEET; also recorded: significantly greater than DEET at 1%”.

For `CCN(CC)C(=O)c1cccc(C)c1` [DEET, diethyltoluamide, reference compound], the “Mean % P.E ± S.E” value is 6.23 ± 1.7% in assay [1] (0.001 % Conc. in acetone); 20% and 20.65 ± 6.4% in assay [1] (0.01 % Conc. in acetone); 83% and 83.78 ± 3.9% in assay [1] (0.1 % Conc. in acetone); 100% and 100 ± 0% in assay [1] (1 % Conc. in acetone); 100% and 100 ± 0% in assay [1] (10 % Conc. in acetone); 7.6 ± 1.8% in assay [2] (0.001 % Conc. in acetone). Moreover, the “Mean % P.E ± S.E” value in assay [2] (0.01 % Conc. in acetone) is 12.0 ± 1.7%; in assay [2] (0.1 % Conc. in acetone) it was 76.9 ± 5.4%; in assay [2] (1 % Conc. in acetone), 98.2 ± 1.1%; in assay [2] (10 % Conc. in acetone), 100% and 100 ± 0%.

Regarding `CCCCCCCCCC=O` [decanal], the “ranking of treatments (repellency)” value in assay [2] is recorded as “most effective treatment”.

For the compound `CC(=O)CCC=C(C)CCC=C(C)C` [geranylacetone, 6,10-dimethyl-5,9-undecadien-2-one], the “Mean % P.E ± S.E” value was 7.25 ± 9.5% in assay [1] (0.001 % Conc. in acetone); 11.17 ± 12.9% in assay [1] (0.01 % Conc. in acetone); 30.13 ± 11% in assay [1] (0.1 % Conc. in acetone); 76.97 ± 5.9% in assay [1] (1 % Conc. in acetone); 100% in assay [1] (10 % Conc. in acetone); 100 ± 0% in assay [1] (10 % Conc. in acetone, listed as geranylacetonedecanal). Moreover, the “Mean % P.E ± S.E” value is reported as 4.8% in assay [2] (0.0001 % Conc. in acetone); 10% in assay [2] (0.001 % Conc. in acetone); 23.7% in assay [2] (0.01 % Conc. in acetone); 33.2 ± 4.5% in assay [2] (0.1 % Conc. in acetone); 84.1 ± 4.2% in assay [2] (1 % Conc. in acetone); 100 ± 0% in assay [2] (10 % Conc. in acetone). Besides, the “Mean % P.E ± S.E” value in assay [2] (10 % Conc. in acetone, listed as Geranylacetone) turned out to be 100%. For the same compound, the “probing activity (feeding)” value in assay [4] (setting [6]) is reported as “significantly reduced”. Also, the relative attraction entry in assay [4] (setting [6]) is given as “caused a reduction in relative attraction”. Besides, in assay [3] (all concentrations tested (1%, 0.01% and 0.0001% in ethanol)), the repellency entry is given as “effective at all concentrations tested”. The “% repellency compared with DEET” value in assay [3] (full 5 min testing period, single compound at 1%) was “higher % repellency than DEET; these differences were not significant”. Besides, in assay [3], the “repellency compared with DEET at 1%” value is “significantly greater than DEET at 1%”.

With `CCCCCCCCC=O` [nonanal], the “flight activity compared with the untreated hand” value in assay [4] (at only one dose) is “significantly greater flight activity than the untreated hand”.

In the case of `CCCCCCCC=O` [octanal], the “repellent for Ae. aegypti (described previously)” value in assay [5] is recorded as “described previously as a repellent”.
